Values quoted from earlier work in patent publication US6676928B2, “Perfluoroalkyl-containing complexes with polar radicals, process for their production and their use” (Schering Aktiengesellschaft, priority 2000, dated 2004).

Assays:
[1] = 39° C., 0.47 T; cited from earlier work
[2] = 39° C., 0.47 T; cited from earlier work; remark: listed apart in the source
[3] = in vivo; cited from earlier work

Row | SMILES | T^1 - Relaxivity in Water [1] [mmol⁻¹ s⁻¹] | T^1 - Relaxivity in Plasma [2] [mmol⁻¹ s⁻¹] | LD50 [3]
1 | CNC[C@H](O)[C@@H](O)[C@H](O)[C@H](O)CO.O=C([O-])CN1CCN(CC(=O)[O-])CCN(CC(=O)O)CCN(CC(=O)[O-])CC1.[Gd+3] [DOTAREM ®] | 3.5 | 4.3 | –
2 | CC(O)CN1CCN(CC(=O)[O-])CCN(CC(=O)[O-])CCN(CC(=O)[O-])CC1.[Gd+3] (centres unmarked) [PRO HANCE ®] | 3.7 | 4.9 | –
3 | O=S(=O)([O-])c1ccc(-c2c3nc(c(-c4ccc(S(=O)(=O)[O-])cc4)c4ccc([nH]4)c(-c4ccc(S(=O)(=O)[O-])cc4)c4nc(c(-c5ccc(S(=O)(=O)[O-])cc5)c5ccc2[nH]5)C=C4)C=C3)cc1.[Mn+4] [Mn-TPPS, manganese-5,10,15,20-tetrakis(4-sulfonatophenyl)-porphyrin] | – | – | approximately 0.5 mmol/kg
